Laboratory results reported in patent publication US20070098770A1, “Cosmetic path using method thereof, and cosmetic path package” (priority 2003, published 2007).

Tests used:
[1] = Stability of vitamin C dissolved in water; type: physicochemical; details: eight hours after it is dissolved in water
[2] = cited from earlier work

Row | Molecule | portion oxidized into dehydroascorbic acid and deactivated by hydrolysis [1] | volume of an absolute alcohol in which 1 g dissolves ([2]; absolute alcohol) [mL] | volume of an alcohol in which 1 g dissolves ([2]; alcohol) [mL] | volume of glycerol in which 1 g dissolves ([2]; glycerol) [mL] | volume of propylene glycol in which 1 g dissolves ([2]; propylene glycol) [mL] | volume of water in which 1 g dissolves ([2]; water) [mL] | solubility in an alcohol ([2]; alcohol (95% in ethanol)) | solubility in water ([2]; water)
1 | O=C1O[C@H]([C@@H](O)CO)C(O)=C1O [Vitamin C, L-ascorbic acid] | at least 10% | 50 | 30 | 100 | 20 | 3 | – | –
2 | tocopherol [vitamin E] | – | – | – | – | – | – | readily soluble | almost insoluble
